Experimental data: PubChem BioAssay AID1259407 (Chemical Carcinogenesis Research Information System (CCRIS), 2018)
Active and inactive are the calls of the source. The rule behind the calls is not given here.

Tested on: CCRIS mutagenicity, Ames/micronucleus/aberration tests
Test: CCRIS mutagenicity studies

What does the source list for CCOS(C)(=O)=O?
mutagenic call (End Point: IN VITRO MICRONUCLEUS, Test System: CHL/IU CELLS, Metabolic Activation: NONE): active; positive; mutagenic call (End Point: IN VITRO MICRONUCLEUS, Test System: V79 CELLS, Metabolic Activation: NONE): active; positive; mutagenic call (End Point: In vitro micronucleus, Test System: Chinese Hamster Ovary (CHO-WBL) cells, Metabolic Activation: None): active; positive (p<0.01); mutagenic call (End Point: In vivo micronucleus, Test System: Micronucleated hepatocytes, Species: Rat, Strain/Sex: F344/Male, Route: Intraperitoneal): inactive; negative; mutagenic call (End Point: In vivo micronucleus, Test System: Micronucleated hepatocytes, Species: Rat, Strain/Sex: F344/Male, Route: Oral): inactive; negative; mutagenic call (Test System: AMES SALMONELLA TYPHIMURIUM, Strain/Indicator: TA98, Metabolic Activation: NONE, Method: SPIRAL ASSAY): inactive; negative; mutagenic call (Test System: AMES SALMONELLA TYPHIMURIUM, Strain/Indicator: TA98, Metabolic Activation: NONE, Method: STANDARD PLATE): inactive; negative; mutagenic call (Test System: AMES SALMONELLA TYPHIMURIUM, Strain/Indicator: TA98, Metabolic Activation: RAT, LIVER, S-9, AROCLOR 1254, Method: SPIRAL ASSAY): active; positive; mutagenic call (Test System: AMES SALMONELLA TYPHIMURIUM, Strain/Indicator: TA100, Metabolic Activation: NONE, Method: SPIRAL ASSAY): active; positive; mutagenic call (Test System: AMES SALMONELLA TYPHIMURIUM, Strain/Indicator: TA100, Metabolic Activation: NONE, Method: STANDARD PLATE): active; positive; mutagenic call (Test System: AMES SALMONELLA TYPHIMURIUM, Strain/Indicator: TA100, Metabolic Activation: RAT, LIVER, S-9, AROCLOR 1254, Method: SPIRAL ASSAY): inactive; negative; mutagenic call (Test System: AMES SALMONELLA TYPHIMURIUM, Strain/Indicator: TA100, Metabolic Activation: RAT, LIVER, S-9, AROCLOR 1254, Method: STANDARD PLATE): active; positive; mutagenic call (Test System: AMES SALMONELLA TYPHIMURIUM, Strain/Indicator: TA1535, Metabolic Activation: NONE, Method: SPIRAL ASSAY): active; positive; mutagenic call (Test System: AMES SALMONELLA TYPHIMURIUM, Strain/Indicator: TA1535, Metabolic Activation: NONE, Method: STANDARD PLATE): active; positive; mutagenic call (Test System: AMES SALMONELLA TYPHIMURIUM, Strain/Indicator: TA1535, Metabolic Activation: RAT, LIVER, S-9, AROCLOR 1254, Method: SPIRAL ASSAY): active; positive; mutagenic call (Test System: AMES SALMONELLA TYPHIMURIUM, Strain/Indicator: TA1535, Metabolic Activation: RAT, LIVER, S-9, AROCLOR 1254, Method: STANDARD PLATE): active; positive; mutagenic call (Test System: AMES SALMONELLA TYPHIMURIUM, Strain/Indicator: TA1537, Metabolic Activation: NONE, Method: SPIRAL ASSAY): inactive; negative; mutagenic call (Test System: AMES SALMONELLA TYPHIMURIUM, Strain/Indicator: TA1537, Metabolic Activation: NONE, Method: STANDARD PLATE): active; positive; mutagenic call (Test System: AMES SALMONELLA TYPHIMURIUM, Strain/Indicator: TA1537, Metabolic Activation: RAT, LIVER, S-9, AROCLOR 1254, Method: SPIRAL ASSAY): inactive; negative; mutagenic call (Test System: AMES SALMONELLA TYPHIMURIUM, Strain/Indicator: TA1537, Metabolic Activation: RAT, LIVER, S-9, AROCLOR 1254, Method: STANDARD PLATE): active; positive; mutagenic call (Test System: AMES SALMONELLA TYPHIMURIUM, Strain/Indicator: TA1538, Metabolic Activation: RAT, LIVER, S-9, AROCLOR 1254, Method: STANDARD PLATE): active; positive; mutagenic call (Test System: AMES SALMONELLA TYPHIMURIUM, Strain/Indicator: YG7100, Metabolic Activation: NONE, Method: PREINCUBATION): inactive; negative; mutagenic call (Test System: AMES SALMONELLA TYPHIMURIUM, Strain/Indicator: YG7104, Metabolic Activation: NONE, Method: PREINCUBATION): active; positive; mutagenic call (Test System: AMES SALMONELLA TYPHIMURIUM, Strain/Indicator: YG7108, Metabolic Activation: NONE, Method: PREINCUBATION): active; positive; mutagenic call (Test System: AMES SALMONELLA TYPHIMURIUM, Strain/Indicator: YG7112, Metabolic Activation: NONE, Method: PREINCUBATION): active; positive; mutagenic call (Test System: AMES SALMONELLA TYPHIMURIUM, Strain/Indicator: YG7113, Metabolic Activation: NONE, Method: PREINCUBATION): active; positive; mutagenic call (Test System: AMES SALMONELLA TYPHIMURIUM, Strain/Indicator: YG7119, Metabolic Activation: NONE, Method: PREINCUBATION): inactive; negative; mutagenic call (Test System: CHINESE HAMSTER OVARY, Strain/Indicator: CHO-K1-BH4 (HGPRT)/6-THIOGUANINE, Metabolic Activation: NONE, Method: LIQUID SUSPENSION): active; positive; mutagenic call (Test System: CHINESE HAMSTER OVARY, Strain/Indicator: CHO-K1-BH4 (HGPRT)/6-THIOGUANINE, Metabolic Activation: NONE, Method: SUSPENSION/PLATE): active; positive; mutagenic call (Test System: CHINESE HAMSTER OVARY, Strain/Indicator: CHO-K1-BH4 (HGPRT), Metabolic Activation: NONE, Method: MONOLAYER): active; positive; mutagenic call (Test System: CHINESE HAMSTER OVARY, Strain/Indicator: CHO-K1-BH4 (HGPRT), Metabolic Activation: NONE, Method: SUSPENSION/PLATE): active; positive; mutagenic call (Test System: CHINESE HAMSTER V-79, Strain/Indicator: V-79 (HGPRT)/6-THIOGUANINE, Metabolic Activation: NONE): active; positive; mutagenic call (Test System: CHINESE HAMSTER V-79, Strain/Indicator: V-79 (HPRT)/6-THIOGUANINE, Metabolic Activation: NONE, Method: FLUCTUATION TEST): active; positive; mutagenic call (Test System: CHINESE HAMSTER V-79, Strain/Indicator: V-79-MZ (HPRT)/6-THIOGUANINE, Metabolic Activation: NONE): active; positive; mutagenic call (Test System: CHINESE HAMSTER V-79, Strain/Indicator: V-79-UL (HPRT)/6-THIOGUANINE, Metabolic Activation: NONE): active; positive; mutagenic call (Test System: CHINESE HAMSTER V-79, Strain/Indicator: V-79/6-THIOGUANINE, Metabolic Activation: NONE, Method: FLASK ASSAY): active; positive; mutagenic call (Test System: CHINESE HAMSTER V-79, Strain/Indicator: V-79/6-THIOGUANINE, Metabolic Activation: NONE, Method: LIQUID SUSPENSION): active; positive; mutagenic call (Test System: CHINESE HAMSTER V-79, Strain/Indicator: V-79/6-THIOGUANINE, Metabolic Activation: NONE, Method: STANDARD PLATE): active; positive; mutagenic call (Test System: CHINESE HAMSTER V-79, Strain/Indicator: V-79/6-THIOGUANINE, Metabolic Activation: NONE, Method: SUSPENSION/PLATE): active; positive; mutagenic call (Test System: CHINESE HAMSTER V-79, Strain/Indicator: V-79/8-AZAGUANINE, Metabolic Activation: NONE, Method: STANDARD PLATE): active; positive; mutagenic call (Test System: CHINESE HAMSTER V-79, Strain/Indicator: V-79/8-AZAGUANINE, Metabolic Activation: NONE, Method: SUSPENSION/PLATE): active; positive; mutagenic call (Test System: CHINESE HAMSTER V-79, Strain/Indicator: V-79/OUABAIN, Metabolic Activation: NONE, Method: STANDARD PLATE): active; positive; mutagenic call (Test System: CHINESE HAMSTER V-79, Strain/Indicator: V-79/OUABAIN, Metabolic Activation: NONE, Method: SUSPENSION/PLATE): active; positive; mutagenic call (Test System: CHO/HGPRT, Strain/Indicator: CHO-K1-BH4, Metabolic Activation: MOUSE, IN VIVO, Method: HOST-MEDIATED): active; positive; mutagenic call (Test System: E. COLI, Strain/Indicator: WP2, Metabolic Activation: NONE, Method: STANDARD PLATE): active; positive; mutagenic call (Test System: E. COLI, Strain/Indicator: WP2, Metabolic Activation: RAT, LIVER, S-9, AROCLOR 1254, Method: STANDARD PLATE): active; positive; mutagenic call (Test System: E. COLI, Strain/Indicator: WP2 UVRA, Metabolic Activation: HAMSTER, LIVER, S-9, AROCLOR 1254, Method: STANDARD PLATE): inactive; negative; mutagenic call (Test System: E. COLI, Strain/Indicator: WP2 UVRA, Metabolic Activation: HAMSTER, LIVER, S-9, Method: STANDARD PLATE): inactive; negative; mutagenic call (Test System: E. COLI, Strain/Indicator: WP2 UVRA, Metabolic Activation: MOUSE, LIVER, S-9, AROCLOR 1254, Method: STANDARD PLATE): inactive; negative; mutagenic call (Test System: E. COLI, Strain/Indicator: WP2 UVRA, Metabolic Activation: MOUSE, LIVER, S-9, Method: STANDARD PLATE): inactive; negative; mutagenic call (Test System: E. COLI, Strain/Indicator: WP2 UVRA, Metabolic Activation: RAT, LIVER, S-9, Method: STANDARD PLATE): inactive; negative; mutagenic call (Test System: MOUSE LYMPHOMA, Strain/Indicator: L5178Y (HGPRT)/6-THIOGUANINE, Metabolic Activation: NONE, Method: SUSPENSION/PLATE): active; positive; mutagenic call (Test System: MOUSE LYMPHOMA, Strain/Indicator: L5178Y (TK+/TK-)/TRIFLUOROTHYMIDINE, Metabolic Activation: NONE, Method: SUSPENSION/PLATE): active; positive; mutagenic call (Test System: MOUSE LYMPHOMA, Strain/Indicator: L5178Y (TK+/TK-), Metabolic Activation: NONE, Method: FLUCTUATION TEST): active; positive; mutagenic call (Test System: MOUSE LYMPHOMA, Strain/Indicator: L5178Y (TK+/TK-), Metabolic Activation: NONE, Method: IN SITU): active; positive; mutagenic call (Test System: MOUSE LYMPHOMA, Strain/Indicator: L5178Y (TK+/TK-), Metabolic Activation: NONE, Method: LIQUID SUSPENSION): active; positive; mutagenic call (Test System: MOUSE LYMPHOMA, Strain/Indicator: L5178Y (TK+/TK-), Metabolic Activation: RAT, LIVER, S-9, AROCLOR 1254, Method: SUSPENSION/PLATE): active; positive; mutagenic call (Test System: UDS HUMAN CELLS, Strain/Indicator: THY INCORP (NON-S-PHASE), Metabolic Activation: NONE, Method: LIQUID SCINTILLATION COUNTING): active; positive; mutagenic call (Test System: UDS HUMAN LYMPHOCYTES, Strain/Indicator: THY INCORP (NON-S-PHASE), Metabolic Activation: NONE, Method: LIQUID SCINTILLATION COUNTING): active; positive; mutagenic call (Test System: UDS RODENT PRIMARY CELLS, Strain/Indicator: THY INCORP (NON-S-PHASE), Metabolic Activation: NONE, Method: LIQUID SCINTILLATION COUNTING): active; positive
